This is an account of results in patent US11154591B2, “Methods of treating alcohol abuse disorder” (THE TRUSTEES OF COLUMBIA UNIVERSITY IN THE CITY OF NEW YORK, priority 2016, dated 2021).

One experiment deals with male C57BL/6J mice. In words: Free-choice 10% ethanol vs water intake, Example 2. It counts as in vivo. The procedure:
To test this hypothesis, 5 groups of 5 male C57BL/6J mice (25 total) were housed for 40 days in plastic cages with 2 water bottles each: one containing water and the other 10% ethanol in water (10% ethanol). Fluids were available “free choice”, and intake from each bottle was recorded daily.
Over the 1st week, 10% ethanol and water were consumed at a mean ratio of 0.80±0.32:1.0. Intake of 10% ethanol then increased, plateauing at a 10% ethanol:water ratio of 2.0±0.17:1.0 by Days 22-30. This was assigned a value of 100% as baseline for the subsequent studies. Starting on Day 31, 15 mice were injected with Spexin in 1×PBS 25 μg/kg in PBS i.p. daily for 3 days. Mice were administered the 14 amino acid Spexin peptide with carboxy terminal amidation: Asn-Trp-Thr-Pro-Gln-Ala-Met-Leu-Tyr-Leu-Lys-Gly-Ala-Gln-NH2 (SEQ ID NO: 4; available from Phoenix Pharmaceuticals, Catalog No. 023-81). The other 10 mice were injected with 1×PBS (vehicle) alone.

For the next experiment, the system named is rat stomach explant. The settings on record: cited from earlier work.
For a further experiment, the system named is C57BL/6J mice. Briefly: Free-choice 10% ethanol/water drinking, Example 1. It counts as in vivo. From the text:
Animals (C57BL/6J mice) were offered two options for drinking water, one bottle with pure water, and the other bottle containing a 10% ethanol/water mix, both of which were available “free choice” from Day 1 of the experiment. […] In this experiment, as the mice became accustomed to the 10% ethanol mix offered, they began to drink more and more of the ethanol mix, so that when their liquid consumption was plotted as a ratio of 10% ethanol/water, the ratio quickly became greater than 1 (more 10% ethanol than pure water). The mice were allowed to establish a baseline consumption pattern, and after 30 Days, 5 cages consistently consumed more of the ethanol mix than pure water.
Beginning on Day 33, three cages were treated with Spexin at 25 micrograms/kg/day in 1×PBS; via IP injection (cages 1, 4, and 10). Mice were administered the 14 amino acid Spexin peptide with carboxy terminal amidation: Asn-Trp-Thr-Pro-Gln-Ala-Met-Leu-Tyr-Leu-Lys-Gly-Ala-Gln-NH2 (SEQ ID NO: 4; available from Phoenix Pharmaceuticals, Catalog No. 023-81). The other two cages (2 and 7) were injected with an equal volume of vehicle according to the same schedule. Animals were injected for 5 days (Days 33 through 37), then given two days off (Days 38 and 39), then injected again with Spexin for two more days (days 40 and 41). […]

The test system of a further experiment is obese (DIO) mice. The settings on record: injected into obese (DIO) mice; cited from earlier work.

Turning to “Asn-Trp-Thr-Pro-Gln-Ala-Met-Leu-Tyr-Leu-Lys-Gly-Ala-Gln-NH2 [Spexin]”, the “10% ethanol:water ratio, % of baseline” value in the experiment with male C57BL/6J mice (25 μg/kg i.p. daily, 1st day of Spexin administration, baseline ratio 2.0:1.0 = 100%) worked out at 80.7%; in the experiment on male C57BL/6J mice (25 μg/kg i.p. daily, 2nd day of Spexin administration), 42.4%; in the experiment on male C57BL/6J mice (25 μg/kg i.p. daily, 3rd day of Spexin administration), 42.4%; in the experiment on male C57BL/6J mice (1st day post-Spexin), 100%; with male C57BL/6J mice (2nd day post-Spexin) it was 136%. The ethanol intake result in the experiment with male C57BL/6J mice (daily spexin injections, free choice) was “rapidly & significantly reduce ethanol intake”. In the experiment on rat stomach explant, the contractile effects result is on record as “demonstrates contractile effects”. For the same substance, the “ratio of 10% ethanol/water consumption” value was “dropped in all three cages” in the experiment on C57BL/6J mice (25 micrograms/kg/day IP in 1xPBS, Days 33-37 and 40-41, cages 1, 4 and 10); “below 1” with C57BL/6J mice (25 micrograms/kg/day IP, cages 4 and 10). For the same substance, the weight loss entry with obese (DIO) mice was “produces weight loss”.
